Earlier results, collected in patent publication US20050272804A1, “Methods of delaying Alzheimer's disease progression using a beta-amyloid precursor protein inhibitor and a HMG CoA reductase inhibitor” (priority 2004, published 2005).

Key:
[1] = test system: brain extracellular acetylcholine (ACh); settings: striatal microdialysis, conscious freely-moving rats
[2] = rats, i.v. dosing
neuronal NOS (nNOS) = settings: Tg mice, 2.5 mg/kg, i.p., brain extracts
NOS = settings: Tg mice, 2.5 mg/kg, i.p., brain extracts
AChE = biological target: T1, AChE (Rattus norvegicus, UniProt P37136); settings: rats, after phenserine administration
T1 construct: from tissue
T1 sequence (P37136 32-614): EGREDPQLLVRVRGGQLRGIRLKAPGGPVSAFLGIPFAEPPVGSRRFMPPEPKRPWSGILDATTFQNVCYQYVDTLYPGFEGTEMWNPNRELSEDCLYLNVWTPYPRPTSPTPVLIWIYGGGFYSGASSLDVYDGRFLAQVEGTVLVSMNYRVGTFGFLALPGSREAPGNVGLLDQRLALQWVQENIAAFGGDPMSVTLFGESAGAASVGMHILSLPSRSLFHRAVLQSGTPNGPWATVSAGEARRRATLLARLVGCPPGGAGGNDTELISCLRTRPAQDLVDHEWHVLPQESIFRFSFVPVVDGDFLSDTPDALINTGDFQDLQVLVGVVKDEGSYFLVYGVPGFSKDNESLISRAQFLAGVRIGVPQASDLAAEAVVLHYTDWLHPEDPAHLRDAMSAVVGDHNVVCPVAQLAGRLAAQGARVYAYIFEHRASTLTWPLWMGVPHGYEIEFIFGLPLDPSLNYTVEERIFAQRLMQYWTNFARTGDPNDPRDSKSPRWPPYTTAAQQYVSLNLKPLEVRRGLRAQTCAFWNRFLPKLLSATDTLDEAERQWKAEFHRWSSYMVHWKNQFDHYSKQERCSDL

Aβ = settings: Tg mice, 2.5 mg/kg, i.p.

CN1CC[C@]2(C)c3cc(OC(=O)Nc4ccccc4)ccc3N(C)C12 (single isomer, unassigned; (+)) [(+)-Penserine]
anticholinesterase activity (cholinesterase): minimal

CN1CC[C@@]2(C)c3cc(OC(=O)Nc4ccccc4)ccc3N(C)C12 (single isomer, unassigned) [phenserine]
rise in brain ACh levels [1]: greater than 3 fold | brain drug levels relative to plasma [2]: 10 fold | time to peak drug level ([2]; brain and plasma): ≤ 5 min | levels of nNOS protein (neuronal NOS (nNOS)): increased | NOS activity, treated vs control Tg groups (NOS): no significant difference | half-life of AChE inhibition (AChE): > 8.25 h | inhibition of AChE (AChE): > 70% | lowering of brain Aβ levels (Aβ): approximately 50%
